Consider 8 compounds from publication PMC11137182, “Selective and brain-penetrant ACSS2 inhibitors target breast cancer brain metastatic cells” (Frontiers in Pharmacology, 2024).

One series has as its system MDA-MB-231BR cells. As to the kind of experiment: Clonogenic survival assay. Format: cell-based. As to conditions: 100 μM, 48 h treatment, 10 days growth. The procedure:
Triple-negative brain trophic cells MDA-MB-231BR and 4T1BR cells were a kind gift from Dr. Patricia Steeg (Center for Cancer Research, National Cancer Institute) ([Achrol et al., 2019]). Both cell lines were cultured in DMEM supplemented with 10% fetal bovine serum (FBS), 5% 10,000 Units/mL Penicillin-10,000 μg/mL Streptomycin, and 5% 200 mM L-Glutamine. For crystal violet staining, 5 × 10^4 cells were plated and subjected to the treatments as described in the individual figures and then stained with 0.5% crystal violet prepared in a 1:1 methanol-water solution followed by PBS washes. ACSS2 inhibitors were dissolved in 100% ultra-pure DMSO.
To assess clonogenic survival, 1 × 10^5 cells were seeded into a 6-well plate until 70%–80% confluency and treated for 48 h with analogs at 100 uM (unless otherwise stated in the figure legend). After 48 h, cells were trypsinized and counted using hemocytomer, and 1 × 10^4 cells per treatment were plated into a 6-well plate with fresh culture medium and allowed to grow for 10 days. Following 10-day incubation, cells were washed twice with PBS, stained with crystal violet for 30 min, and washed with dH2O twice. Colonies >50mircons were counted. For crystal violet staining, 0.5% crystal violet was prepared in a 1:1 methanol-water solution.

Series [1] has as its target T1, ACSS2 (Homo sapiens, UniProt Q9NR19).
T1 construct: His-tag (N); His-tag (C); made in house; host or cells: E. coli BL21 (DE3) RIL
Kind of series: SPR binding to immobilized ACSS2. Conditions: mean; for koff / kon: 1:1 binding model. The method, then: Overproduction of ACSS2 was achieved using a prokaryotic expression system. […] The bacterial expressions were then spun down, the supernatant discarded, and the pellets resuspended in 50 mM Tris HCl pH8.0, 800 mM NaCl, 5 mM Imidazole, 2 mM MgCl2, 10% Glycerol, 0.1 mg/mL Lysozyme, 1 mM Protease inhibitor (PMSF). After the cells were lysed via sonication, the sample was subjected to ultracentrifugation, and the clarified lysate was applied to a 5 mL Talon cobalt resin affinity column (Clonetech Laboratories, Mountain View, CA). The bound protein was washed with 300 mL wash buffer 1 (20 mM Tris HCl pH8.0, 800 mM NaCl, 15 mM Imidazole, 5 mM MgCl2, 10% Glycerol, 0.1% CHAPS) and 300 mL wash buffer 2 (20 mM Tris HCl pH8.0, 400 mM NaCl, 18 mM Imidazole, 5 mM MgCl2, 10% Glycerol) prior elution with 20 mM Tris HCl pH8.0, 400 mM NaCl, 300 mM Imidazole, 2 mM MgCl2, 5% Glycerol. Eluted ACSS2 was then dialyzed overnight into 20 mM Tris HCl pH8.0, 150 mM NaCl, 5% Glycerol, concentrated and applied to a Superdex S-200 (16/600) using the same buffer without Glycerol. ACSS2 fractions were pooled, concentrated to 3 mg/mL, aliquoted, and stored at −80°C. hACSS1 was obtained from a commercial vendor (www.mybiosource.com).
All binding assays were performed on a ProteOn XPR36 SPR Protein Interaction Array System (Bio-Rad Laboratories, Hercules, CA, United States). The instrument temperature was set at 25°C for all kinetic analyses. ProteOn GLH sensor chips were preconditioned with two short pulses each (10 s) of 50 mM NaOH, 100 mM HCl, and 0.5% sodium […]. Then, the system was equilibrated with running buffer (1x PBS pH 7.4, 3% DMSO, and 0.005% polysorbate 20). The surface of a GLH sensor chip was activated with a 1:100 dilution of a 1:1 mixture of 1-ethyl-3-(3-dimethylaminopropyl) carbodiimide hydrochloride (0.2 M) and sulfo-N-hydroxysuccinimide (0.05 M). Immediately after chip activation, the human ACSS2 or hACSS1 proteins were prepared at a concentration of 10 μg/mL in 10 mM sodium acetate, pH 5.5, and injected across ligand flow channels for 5 min at a flow rate of 30 μL/min. Then, after unreacted protein had been washed out, excess active ester groups on the sensor surface were capped by a 5 min injection of 1M ethanolamine HCl (pH 8.0) at a flow rate of 5 μL/min. A reference surface was similarly created by immobilizing a nonspecific protein (IgG b12 anti-HIV-1 gp120; was obtained through the NIH AIDS Reagent Program, Division of AIDS, NIAID, NIH: Anti-HIV-1 gp120 Monoclonal (IgG1 b12) from Dr. Dennis Burton and Carlos Barbas) and was used as a background to correct nonspecific binding. […] Data were analyzed using the ProteOn Manager Software version 3.0 (Bio-Rad). The responses from the reference flow cell were subtracted to account for the nonspecific binding and injection artifacts. Experimental data were fitted to a simple 1:1 binding model. Experiments were performed in triplicate to detect kinetic and equilibrium dissociation constants (KD).

The nature of series [2]: Human liver microsome stability. Conditions: for half-life: Human Liver Microsome Stability T1/2, human liver microsomes.
For series [3], the target named is T1, ACSS2. As to the kind of experiment: Fluorescence polarization-based ACSS2 biochemical assay (ATP to AMP conversion). Conditions: 100 nM ACSS2, triplicate, ± SD; read-out: IC50, inhibition of ATP to AMP conversion of ACSS2. The method, then: ACSS2 enzyme activity was measured using the TranScreener AMP^2/GMP^2 Assay Kit—FP Readout assay (BellBrook Labs). The assay was performed in white, opaque, 96-well plates. […] ACSS2 was used in assay buffer (30 mM HEPES, pH 7.4, 140 mM NaCl, 2 mM MgCl2, 5 mM sodium acetate, 2 mM DTT, 0.05% CHAPS). Substrate mix was added, followed by a 60-min incubation. Final substrate concentrations were 5 mM acetate, 50 μM ATP, and 5 μM CoA. After incubation, conjugated AMP antibody and AMP tracer were added according to the methods described by BellBrook Labs. After 30 min, the FP signal was measured using a Tecan Spark multimode microplate reader. In the analysis, data were normalized to represent the percentage inhibition of ATPase activity.

Another series deals with MDR1 (P-gp). Kind of series: Bi-directional permeability across MDR1-MDCK cell monolayer (BBB assay). It is filed as in vitro ADME, canine. Conditions: dog; MDR1-MDCK I monolayer, A to B. The text has this: This assay provides the apparent permeability coefficient (Papp), efflux ratio, and % recovery to assess compound permeation.
For another series, the system named is FASN. As to the kind of experiment: Immunoblot of FASN protein levels. It is filed as cell-based. Conditions: MDA-MB-231BR cells, 24 h. The method, then:
Immunoblotting protocols have been previously described. Briefly, cell lysates from one to five x 10^6 cells were prepared in radioimmune precipitation assay buffer (150 mM NaCl, 1% NP40, 0.5% DOC, 50 mM Tris HCL at pH 8, 0.1% SDS, 10% glycerol, 5 mM EDTA, 20 mM NaF, and 1 mM Na3VO4) supplemented with 1 μg/mL each of pepstatin, leupeptin, aprotinin, and 200 μg/mL PMSF. Lysates were cleared by centrifugation at 16,000 x g for 15 min at 4°C and analyzed by SDS-PAGE and autoradiography with chemiluminescence. Proteins were analyzed by immunoblotting using primary antibodies indicated above.

Setting [4] is: 25°C, Langmuir isotherm equilibrium fit, n=3, read-out: KD equilibrium.
Where [5] appears, read: global fit, n=3, read-out: KD kinetic/global.

Where two headings read alike, the source gives them in different places.

T1 sequence (Q9NR19 whole entry): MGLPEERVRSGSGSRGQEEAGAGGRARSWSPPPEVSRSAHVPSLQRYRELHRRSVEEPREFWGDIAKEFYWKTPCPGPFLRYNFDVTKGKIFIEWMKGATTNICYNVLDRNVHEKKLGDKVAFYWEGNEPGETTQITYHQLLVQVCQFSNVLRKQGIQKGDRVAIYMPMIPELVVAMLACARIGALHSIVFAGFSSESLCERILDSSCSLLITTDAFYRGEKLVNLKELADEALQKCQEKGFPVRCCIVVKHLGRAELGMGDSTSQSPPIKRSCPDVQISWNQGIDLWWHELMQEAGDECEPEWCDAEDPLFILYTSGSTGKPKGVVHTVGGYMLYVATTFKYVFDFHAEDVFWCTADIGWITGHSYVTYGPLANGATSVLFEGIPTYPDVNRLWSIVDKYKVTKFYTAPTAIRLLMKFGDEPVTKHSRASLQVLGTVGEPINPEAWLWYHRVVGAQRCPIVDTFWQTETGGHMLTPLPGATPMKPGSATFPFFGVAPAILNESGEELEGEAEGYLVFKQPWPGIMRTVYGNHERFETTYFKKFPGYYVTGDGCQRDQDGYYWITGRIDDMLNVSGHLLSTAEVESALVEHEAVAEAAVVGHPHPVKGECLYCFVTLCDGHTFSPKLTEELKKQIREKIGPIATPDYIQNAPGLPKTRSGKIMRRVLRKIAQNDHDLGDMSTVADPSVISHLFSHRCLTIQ

As for `C[C@H](N)C(=O)N1CCCC(c2ccccc2)(c2ccccc2)C1` [AD-1363], in the series on MDA-MB-231BR cells, the clonogenic survival entry is on record as “significant reduction in clonogenic survival”.
Regarding `O=C(CCN1CCCC(c2ccccc2)(c2ccccc2)C1)NC1CC1` [AD-2441], in the series on MDA-MB-231BR cells, the clonogenic survival result is on record as “significantly reduce clonogenic survival”.
In the case of `Cc1cccn2c(CC(=O)NCCC(c3ccccc3)c3ccco3)cnc12` (stereo not shown) [AD-3766], the clonogenic survival entry with MDA-MB-231BR cells is reported as “significant reduction in clonogenic survival”. Also, the koff at ACSS2 [1] (n=3, read-out: koff) was determined as 0.359 s⁻¹. For the same compound, the kon on ACSS2 [1] (n=3, read-out: kon) came to 5010 M⁻¹ s⁻¹. Further, the Kd on ACSS2 [1] (setting [4]) was 70.6 µM. Further, the Kd at ACSS2 [1] (setting [5]) was 77.6 µM. In series [2] (human liver microsomes), the “Remaining (T=60min)” value worked out at 0.0005 and the “Remaining (NCF=60min)” value stood at 0.9639. For the same compound, in series [2] (human, liver microsomes), the CLint scaled is 1360 mL/min/kg, the “Human Liver Microsome Stability T1/2” value was 54 s, the microsomal CLint turned out to be 1520 µL/min/mg and the half-life worked out at 54.8 s.
For the compound `CN1CCC(O)(C(=O)NCCc2ccccc2Oc2ccccc2)CC1` [AD-7346], on ACSS2 [1] (n=3, read-out: koff), the koff worked out at 0.399 s⁻¹. Further, at ACSS2 [1] (n=3, read-out: kon), the on-rate (kon) is 10100 M⁻¹ s⁻¹. In addition, the Kd amounted to 39.8 µM on ACSS2 [1] (setting [4]) and 49.4 µM on ACSS2 [1] (setting [5]). Further, on ACSS2 [3], the IC50 came to 2.03 ± 0.21 µM.
For the compound `O=C(O)Cc1ccccc1Nc1c(Cl)cccc1Cl` [Diclofenac, reference compound], in series [2] (human liver microsomes), the “Remaining (T=60min)” value is listed as 0.00044 and the “Remaining (NCF=60min)” value came to 0.8763. Also, in series [2] (human, liver microsomes), the CLint scaled is 236 mL/min/kg, the intrinsic metabolic clearance (microsomal CLint) amounted to 262 µL/min/mg and the half-life is 318 s.
For the compound `COCCc1ccc(OCC(O)CNC(C)C)cc1` (stereo not shown) [Metoprolol, reference compound], the Papp A→B with MDR1 (P-gp) came out at 12.9 ×10⁻⁶ cm/s.
For the compound `C[C@]12CC[C@H]3[C@@H](CCC4=CC(=O)CC[C@@]43C)[C@@H]1CC[C@@H]2O` [Testosterone, reference compound], in series [2] (human liver microsomes), the “Remaining (T=60min)” value was found to be 0.06959 and the “Remaining (NCF=60min)” value was determined as 0.8976. Further, the “CLint(liver)” value in series [2] (human liver microsomes, scaled) is reported as 80.3781 mL/min/kg.
As to `COCCNC(=O)Nc1ccc2nc(-c3cccs3)c(-c3cccs3)nc2c1` [VY-3-249, reference compound], the “protein levels of FASN” value in the series on FASN was “reduced protein levels of FASN”. Moreover, in the series on MDA-MB-231BR cells, the clonogenic survival entry is listed as “significantly reduce clonogenic survival”. In addition, the dissociation rate constant (koff) on ACSS2 [1] (n=3) turned out to be 0.105 s⁻¹. On ACSS2 [1] (n=3), this compound yielded a kon of 1800 M⁻¹ s⁻¹. Besides, the Kd on ACSS2 [1] (setting [4]) was found to be 53.2 µM; on ACSS2 [1] (setting [5]), 66 µM. On ACSS2 [3], the IC50 amounted to 1.2 ± 0.49 µM.
